Laboratory results taken from patent US20120046261A1, “COMPOSITIONS AND METHODS FOR DIAGNOSING AND PREVENTING SPONTANEOUS PRETERM BIRTH” (UNIVERSITY OF UTAH RESEARCH FOUNDATION, priority 2009, published 2012).
Entries after “also recorded” stand apart in the source; their conditions may differ.

Tested on: women with prior spontaneous preterm birth
Assay: Multicenter, prospective, double-blind study of 17P vs. placebo for prevention of recurrent SPTB, secondary analysis by hPR genotype
Assay type: in vivo, human
Method: The goal of this study was to assess if women with single nucleotide polymorphisms (SNPs) in the human progesterone receptor (hPR) are more or less likely to respond to 17P for the prevention of recurrent SPTB. This study involved secondary analysis of 463 women enrolled in a multicenter, prospective, double-blind study of 17P vs. placebo for the prevention of recurrent SPTB.
Of 463 patients randomized in the original study, 459 were analyzed. Two thirds of women were randomized to 17P and one third were randomized to placebo. Of those patients who received 17P, 111, or 36%, delivered preterm less than 37 weeks, and 195, or 64%, delivered at term. Among those patients who received placebo, the preterm birth rate was higher, as 55% of women delivered preterm. During summer 2008, DNA was extracted from stored saliva samples. […]
20 SNPs in the hPR gene were selected to encompass the large progesterone receptor haplotype block. The 389 individuals with DNA available were then genotyped using TaqMan chemistry with established primers. Allele and genotype frequencies were calculated and evaluated for evidence of genetic predisposition to 17P response. Women were stratified by self-reported race. Primary outcomes evaluated were preterm birth<37 and <32 weeks
Regression was used to assess for an interaction between genotype, treatment, and clinical outcomes. Models controlled for number of prior spontaneous preterm births, smoking, and pre-pregnancy body mass index.
Dominant and recessive models of inheritance were used in this study (see Table 2 above). The dominant model assumes that having at least one copy of the minor allele is sufficient for disease. Patients homozygous for the minor allele and heterozygous patients with one minor allele are grouped together; here “little a/little a” and “Big A/little a” are compared with those homozygous for the major allele, “Big A/Big A.” The recessive model assumes that two copies of the minor allele are needed for disease. Here, those patients who are homozygous for the minor allele “little a/little a” are compared against the others.
Outcomes were available on 459 of the original 463 patients enrolled in the study. The study population of 389 patients was representative of the original cohort (see Table 3 below). The majority of patients in the cohort were African-American. Two-thirds of patients in the cohort received 17P. Furthermore, a similar proportion of patients delivered preterm less than 37 weeks and very preterm, less than 32 weeks, in the cohort when compared to the original study. Additionally, 21.1% of patients smoked during pregnancy. All patients had at least one prior spontaneous preterm birth in order to qualify for the original study. 28% of patients had 2 or more prior spontaneous preterm deliveries. The average pre-pregnancy body mass index was 26.7 kilograms per meter squared.

[1] = all patients who received 17P, original study cohort (459 analyzed)

## CCCCCC(=O)O[C@]1(C(C)=O)CC[C@H]2[C@@H]3CCC4=CC(=O)CC[C@]4(C)[C@H]3CC[C@@]21C [17P, 17 alpha-hydroxyprogesterone caproate]
African Americans, rs471767 AA genotype (homozygous major allele), receiving 17P, placebo nearly 60%
  percentage of patients delivering preterm <37 weeks: 21%
African Americans, rs471767 at least one minor allele (G; AG and GG), receiving 17P
  percentage of patients delivering preterm <37 weeks: under 40%
African Americans, rs578029 at least one major allele (T), receiving 17P, placebo approximately 55%
  rate of prematurity (SPTB): 25%
African Americans, rs578029 homozygous for the minor allele (A)
  reduction in preterm birth rates with 17P: no reduction
[1]
  patients who delivered at term: 64%
  patients who delivered preterm less than 37 weeks: 36%
non-African American (Caucasian/Hispanic), rs666553 at least one minor allele (T), receiving 17P, placebo 26.7%
  rate of preterm birth <32 weeks gestation: 3.4%
non-African American (Caucasian/Hispanic), rs666553 homozygous for the major allele
  reduction in prematurity (<32 weeks) with 17P: do not experience any reduction; also recorded: did not experience any reduction
non-African American, rs503362 at least one minor allele (C), receiving 17P, placebo 17.4%
  rate of preterm birth <32 weeks gestation: 2.6%
non-African American, rs503362 homozygous for the major allele (G)
  reduction in the rate of prematurity (<32 weeks) when receiving 17P: did not have a reduction
